Reference: US11364218B2, “Method of treating or preventing mood disorders, mental disorders, and/or chronic fatigue syndrome” (priority 2016, dated 2022)

Experiments:
[1] = system: depression patients; experiment: Test for administration to depression patients; type: in vivo, human
Description: Test for administration to depression patients (embodiment 1) A 500 mg bolaxin tablet (manufactured by Ying-Yuan chemical pharmaceutical co. ltd.) and 500 mg-containing (methocarbamol content 76% mass) were prepared. A subject suffering from depression for two or more years was selected. A pharmaceutical composition was administered to the patient three times a day, and the administration was continued for one week. The dose on the initial day was 3.0 to 4.5 g/day (converted to methocarbamol). After observing the patient's state, it was increased to 6.0 g/day (converted to methocarbamol). The regular drug in addition to the tested pharmaceutical composition was continuously taken, but drinking was prohibited during the test. After one week, a potential depression improvement effect before and after administration was evaluated. The evaluation investigated a significant difference in two-term judgment of two related groups. The evaluation was judged based on a declaration of whether the subjects felt an improvement in thinking, desires, and fatigue.

[2] = system: mouse; experiment: forced swimming test in mouse (antidepressant action); type: in vivo; conditions: for Immobile time average value / non-moving time: male ICR mice; for Immobile time average value: single forced oral dose 1 h before test (methocarbamol 200 mg/kg; etizolam 0.033 mg/kg), non-moving time in last 7 of 10 min, n=10; for non-moving time: single oral dose 1 h before test (methocarbamol 200 mg/kg; etizolam 0.033 mg/kg), last 7 of 10 min, medium control 230.8 seconds
Excerpt: The antidepressant action of a test substance may be evaluated using a “forced swimming method” in a mouse model.
The forced swimming test in mouse models is an animal experimental method for confirming the antidepressant activity proposed by Porsalt (Arch. Int, pharmacydn. 229.327-336 (1977)).
A mouse placed into a pool indicates either an active state or a non-moving state. Decreases in the non-moving state of the mouse is used as an index to confirm the antidepressant action of a pharmaceutical composition.
The pool used for forced swimming was a glass cylindrical container 30 cm in height and 16 cm in inner diameter filled at a water depth of 20 cm at 25° c.
One hour before the test, 10 mL/kg of the above prepared methocarbamol aqueous solution was administered to the mouse only once (200 mg/kg in methocarbamol conversion).
The administration route was a forced oral administration using an installed mice oral administration sonde made by FUCHIGAMI with a syringe for injection made by TERUMO.
After one hour of forced administration, the mouse was placed in the forced swimming pool described above and left for 10 minutes.
The first three minutes after entering were considered a conditioning period, and the mouse's non-moving time in the remaining 7 minutes was measured.
“Non-motion” was defined by the mouse not moving the anterior limb and the posterior limb, and by a state in which the upper side of the neck is lifted from the water surface and floats.
The “non-moving time” was the sum of “non-motion” time.
The test was repeated 10 times for each mouse, and an average value was calculated.
An etizolam aqueous solution was used in place of a methocarbamol aqueous solution. The same test as described above (1) was performed, but with the administration amount converted to etizolam usage at 0.0333 mg/kg.
Distilled water not containing a pharmaceutical was used in place of the methocarbamol aqueous solution in the same manner as described above (1).
The average non-moving time values of the medium control group (n=10), the examples, and comparative examples (n=10) were compared with each other.

[3] = N=5 depression patients, bolaxin tablets three times a day for one week, 3.0 to 4.5 g/day increased to 6.0 g/day as methocarbamol

Row | SMILES | Effective (subjects declaring improvement in thinking, desires and fatigue) [1, 3] [persons] | No effect [1, 3] [persons] | depression treatment effect ([1]; depression patients, one week of administration) | Immobile time average value [2] [s] | non-moving time [2] [s] | antidepressant effect compared with etizolam group (forced swimming) ([2]; methocarbamol 200 mg/kg oral vs etizolam 0.033 mg/kg oral)
1 | COc1ccccc1OCC(O)COC(N)=O (centres unmarked) [Reagent M-1, Methocarbamol] | 5 | 0 | beneficial depression treatment effect | 157.7 | 157.7 | essentially the same effect as the etizolam administration group
2 | CCc1cc2c(s1)-n1c(C)nnc1CN=C2c1ccccc1Cl [Reagent E-1, Etizolam] | – | – | – | 107.3 | 107.3 | –
